≈ marks a conversion by molar mass, not a printed value.
Columns and labels:
E. coli JM109/pMW218 = assay: MIC, agar plate dilution method, E. coli JM109/pMW218; type: cell-based, Escherichia coli; conditions: for MIC: Escherichia coli, JM109/PMW218, E. coli JM109/pMW218, Sensitive bacterium, read-out: minimal inhibitory concentration (MIC)
Experimental: (§1) As for the representative compounds of a new aminoglycoside antibiotic of the present invention described in Examples, the minimal inhibitory concentration (MIC, μg/mL) was measured for various assay strains of bacteria using an agar plate dilution method in accordance with the method described in the Japan Society of Chemotherapy.

[1] = test system: A. baumannii ATCC BAA-1710; assay: MIC, agar plate dilution method, A. baumannii ATCC BAA-1710; type: cell-based, Acinetobacter baumannii; conditions: for MIC: Acinetobacter baumannii, ATCCBAA1710, A. baumannii ATCC BAA-1710, MDRA, read-out: minimal inhibitory concentration (MIC)
Experimental: as §1

P. aeruginosa PAO1/GN315 = assay: MIC, agar plate dilution method, P. aeruginosa PAO1/GN315; type: cell-based, Pseudomonas aeruginosa; conditions: for MIC: Pseudomonas aeruginosa, read-out: minimal inhibitory concentration (MIC), P. aeruginosa PAO1/GN315, AMK-resistant
Experimental: as §1

S. aureus MF490 = assay: MIC, agar plate dilution method, S. aureus MF490; type: cell-based, Staphylococcus aureus; conditions: for MIC: Staphylococcus aureus, MRSA, read-out: minimal inhibitory concentration (MIC)
Experimental: as §1

S. marcescens GN6944 = assay: MIC, agar plate dilution method, S. marcescens GN6944; type: cell-based, Serratia marcescens; conditions: S. marcescens GN6944, GM-resistant; for MIC: Serratia marcescens, read-out: minimal inhibitory concentration (MIC)
Experimental: as §1

S. marcescens TH-0447 = assay: MIC, agar plate dilution method, S. marcescens TH-0447; type: cell-based, Serratia marcescens; conditions: for MIC: Serratia marcescens, TH0447, S. marcescens TH-0447, AMK-resistant, read-out: minimal inhibitory concentration (MIC)
Experimental: as §1

P. aeruginosa MSC17707 = assay: MIC, agar plate dilution method, P. aeruginosa MSC17707; type: cell-based, Pseudomonas aeruginosa; conditions: for MIC: Pseudomonas aeruginosa, MSC17707, P. aeruginosa MSC17707, AMK-resistant, read-out: minimal inhibitory concentration (MIC)
Experimental: as §1

S. aureus RN4220 = assay: MIC, agar plate dilution method, S. aureus RN4220; type: cell-based, Staphylococcus aureus; conditions: for MIC: Staphylococcus aureus, RN4220, S. aureus RN4220, Sensitive bacterium, read-out: minimal inhibitory concentration (MIC)
Experimental: as §1

P. aeruginosa MSC01035 = assay: MIC, agar plate dilution method, P. aeruginosa MSC01035; type: cell-based, Pseudomonas aeruginosa; conditions: P. aeruginosa MSC01035, ABK-resistant; for MIC: Pseudomonas aeruginosa, read-out: minimal inhibitory concentration (MIC)
Experimental: as §1

S. aureus RN4220/pMS520 = assay: MIC, agar plate dilution method, S. aureus RN4220/pMS520; type: cell-based, Staphylococcus aureus; conditions: for MIC: Staphylococcus aureus, MRSA, read-out: minimal inhibitory concentration (MIC), S. aureus RN4220/pMS520, MRSA
Experimental: as §1

[2] = test system: K. pneumoniae ATCC BAA-1705; assay: MIC, agar plate dilution method, K. pneumoniae ATCC BAA-1705; type: cell-based, Klebsiella pneumoniae; conditions: for MIC: Klebsiella pneumoniae, ATCCBAA1705, K. pneumoniae ATCC BAA-1705, KPC-producing strain, read-out: minimal inhibitory concentration (MIC)
Experimental: as §1

E. faecium ATCC19434 = assay: MIC, agar plate dilution method, E. faecium ATCC19434; type: cell-based, Enterococcus faecium; conditions: for MIC: Enterococcus faecium, ATCC19434, E. faecium ATCC19434, read-out: minimal inhibitory concentration (MIC)
Experimental: as §1

P. aeruginosa PAO1 = assay: MIC, agar plate dilution method, P. aeruginosa PAO1; type: cell-based, Pseudomonas aeruginosa; conditions: for MIC: Pseudomonas aeruginosa, PAO1, P. aeruginosa PAO1, Sensitive bacterium, read-out: minimal inhibitory concentration (MIC)
Experimental: as §1

[3] = test system: K. pneumoniae ATCC BAA-2146; assay: MIC, agar plate dilution method, K. pneumoniae ATCC BAA-2146; type: cell-based, Klebsiella pneumoniae; conditions: for MIC: Klebsiella pneumoniae, ATCCBAA2146, K. pneumoniae ATCC BAA-2146, NDM-producing strain, read-out: minimal inhibitory concentration (MIC)
Experimental: as §1

SMILES | MIC (E. coli JM109/pMW218) [µg/mL] | MIC [1] [µg/mL] | MIC (P. aeruginosa PAO1/GN315) [µg/mL] | MIC (S. aureus MF490) [µg/mL] | MIC (S. marcescens GN6944) [µg/mL] | MIC (S. marcescens TH-0447) [µg/mL] | MIC (P. aeruginosa MSC17707) [µg/mL] | MIC (S. aureus RN4220) [µg/mL] | MIC (P. aeruginosa MSC01035) [µg/mL] | MIC (S. aureus RN4220/pMS520) [µg/mL] | MIC [2] [µg/mL] | MIC (E. faecium ATCC19434) [µg/mL] | MIC (P. aeruginosa PAO1) [µg/mL] | MIC [3] [µg/mL] | further results
CNC1C(O[C@H]2OC(CO)[C@@H](NC(=N)N)[C@H](O)C2O)O[C@H]2CC(N)[C@@H](O[C@H]3CC(O)[C@H](N)CC3N)OC2C1O (stereo partly shown) [Compound S1-e, 4″-deamino-5-deoxy-4″-guanidinoapramycin] | 0.5 (≈ 0.884 µM) | 4 (≈ 7.07 µM) | 4 (≈ 7.07 µM) | 4 (≈ 7.07 µM) | 4 (≈ 7.07 µM) | 4 (≈ 7.07 µM) | 8 (≈ 14.1 µM) | 1 (≈ 1.77 µM) | 8 (≈ 14.1 µM) | 1 (≈ 1.77 µM) | 2 (≈ 3.54 µM) | 4 (≈ 7.07 µM) | 4 (≈ 7.07 µM) | 0.5 (≈ 0.884 µM) | 
NCC[C@H](O)C(=O)N[C@@H]1C[C@H](N)[C@@H](O[C@H]2O[C@H](CN)CC[C@H]2N)[C@H](O)[C@H]1O[C@H]1O[C@H](CO)[C@@H](O)[C@H](N)[C@H]1O [ABK, arbekacin, reference compound] | 0.5 (≈ 0.905 µM) | 32 (≈ 57.9 µM) | 8 (≈ 14.5 µM) | 64 (≈ 116 µM) | 8 (≈ 14.5 µM) | 64 (≈ 116 µM) | 4 (≈ 7.24 µM) | 1 (≈ 1.81 µM) | > 64 | 1 (≈ 1.81 µM) | 16 (≈ 29 µM) | 8 (≈ 14.5 µM) | 2 (≈ 3.62 µM) | > 64 | 
CNC1C(OC2OC(CO)C(N)C(O)C2O)OC2CC(N)C(OC3C(N)CC(N)CC3N)OC2C1O (stereo not shown) [Compound C11, 5-amino-5,6-dideoxyapramycin] |  |  |  |  |  |  |  |  |  |  |  |  |  |  | minimal inhibitory concentration (MIC) (E. coli JM109/pMW218; E. coli JM109/pMW218, Sensitive bacterium): 2 µg/mL (≈ 3.83 µM); minimal inhibitory concentration (MIC) ([1]; A. baumannii ATCC BAA-1710, MDRA): 16 µg/mL (≈ 30.6 µM); minimal inhibitory concentration (MIC) (P. aeruginosa PAO1/GN315; P. aeruginosa PAO1/GN315, AMK-resistant): 16 µg/mL (≈ 30.6 µM); minimal inhibitory concentration (MIC) (S. aureus MF490; S. aureus MF490, MRSA): 16 µg/mL (≈ 30.6 µM); minimal inhibitory concentration (MIC) (S. marcescens GN6944): 16 µg/mL (≈ 30.6 µM); minimal inhibitory concentration (MIC) (S. marcescens TH-0447; S. marcescens TH-0447, AMK-resistant): 16 µg/mL (≈ 30.6 µM); minimal inhibitory concentration (MIC) (P. aeruginosa MSC17707; P. aeruginosa MSC17707, AMK-resistant): 16 µg/mL (≈ 30.6 µM); minimal inhibitory concentration (MIC) (S. aureus RN4220; S. aureus RN4220, Sensitive bacterium): 8 µg/mL (≈ 15.3 µM); minimal inhibitory concentration (MIC) (P. aeruginosa MSC01035): 32 µg/mL (≈ 61.2 µM); minimal inhibitory concentration (MIC) (S. aureus RN4220/pMS520; S. aureus RN4220/pMS520, MRSA): 8 µg/mL (≈ 15.3 µM); minimal inhibitory concentration (MIC) ([2]; K. pneumoniae ATCC BAA-1705, KPC-producing strain): 4 µg/mL (≈ 7.65 µM); minimal inhibitory concentration (MIC) (E. faecium ATCC19434; E. faecium ATCC19434): 32 µg/mL (≈ 61.2 µM); minimal inhibitory concentration (MIC) (P. aeruginosa PAO1; P. aeruginosa PAO1, Sensitive bacterium): 16 µg/mL (≈ 30.6 µM); minimal inhibitory concentration (MIC) ([3]; K. pneumoniae ATCC BAA-2146, NDM-producing strain): 4 µg/mL (≈ 7.65 µM)
CNC1C(O[C@H]2OC(C)[C@@H](N)[C@H](O)C2O)O[C@H]2CC(N)[C@@H](O[C@H]3CC[C@H](N)CC3N)OC2C1O (stereo partly shown) [Compound R6, 5,6,6″-trideoxyapramycin] | 1 (≈ 2.03 µM) | 8 (≈ 16.3 µM) | 8 (≈ 16.3 µM) | 8 (≈ 16.3 µM) | 4 (≈ 8.14 µM) | 8 (≈ 16.3 µM) | 16 (≈ 32.5 µM) | 2 (≈ 4.07 µM) | 16 (≈ 32.5 µM) | 2 (≈ 4.07 µM) | 2 (≈ 4.07 µM) | 16 (≈ 32.5 µM) | 8 (≈ 16.3 µM) | 1 (≈ 2.03 µM) | 
CNC1C(O[C@H]2OC(C)[C@@H](NC(=N)N)[C@H](O)C2O)O[C@H]2CC(N)[C@@H](O[C@H]3CC(O)[C@H](N)CC3N)OC2C1O (stereo partly shown) [Compound S1-q, 4″-deamino-5,6″-dideoxy-4″-guanidinoapramycin] | 0.5 (≈ 0.91 µM) | 16 (≈ 29.1 µM) | 8 (≈ 14.6 µM) | 4 (≈ 7.28 µM) | 4 (≈ 7.28 µM) | 4 (≈ 7.28 µM) | 8 (≈ 14.6 µM) | 1 (≈ 1.82 µM) | 8 (≈ 14.6 µM) | 1 (≈ 1.82 µM) | 1 (≈ 1.82 µM) | 4 (≈ 7.28 µM) | 4 (≈ 7.28 µM) | 0.5 (≈ 0.91 µM) | 

Reference: patent US11135234B2, “Effective aminoglycoside antibiotic for multidrug-resistant bacteria” (MICROBIAL CHEMISTRY RESEARCH FOUNDATION, priority 2015, dated 2021)
